Test results from patent US10364256B2 (GlaxoSmithKline Intellectual Property Development Limited, priority 2015, dated 2019).
Where two headings read alike, the source gives them in different places.

Experiments:
[1] = test system: NQO1 specific enzyme activity in BEAS-2B cells (marker for NRF2 activation); assay: BEAS-2B NQO1 MTT Assay; type: cell-based; conditions: compound incubated 48 hours, read-out: EC50 (NQO1 specific enzyme activity induction)
Outline: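 BEAS-2B cells treated with compound for 48 h at 37 °C, then lysed; NQO1 activity in lysates measured kinetically by MTT reduction at A570 over 30 min. pEC50 from 3-parameter fit of ΔOD/min versus log concentration; lysate also taken for Cell Titer Glo.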

[2] = biological target: T1, Keap1 Kelch domain (321-609) / TAMRA-labeled 16mer NRF2 peptide (ETGE motif) (Homo sapiens, UniProt Q14145); assay: NRF2-Keap1 FP Assay (Keap1 Kelch fluorescence polarization); type: binding; conditions: 20 nM Keap1 (321-609), 8 nM Tamra labeled peptide
T1 construct: the Kelch domain (321-609) of Keap1 is used
T1 sequence (Q14145 321-609): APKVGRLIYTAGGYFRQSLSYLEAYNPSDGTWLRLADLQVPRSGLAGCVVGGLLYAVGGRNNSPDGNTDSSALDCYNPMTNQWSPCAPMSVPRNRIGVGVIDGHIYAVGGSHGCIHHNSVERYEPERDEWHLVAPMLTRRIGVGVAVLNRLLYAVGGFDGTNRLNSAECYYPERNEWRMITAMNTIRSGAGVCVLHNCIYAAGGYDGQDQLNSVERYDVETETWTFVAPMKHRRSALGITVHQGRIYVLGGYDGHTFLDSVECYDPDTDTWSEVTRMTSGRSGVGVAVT
Outline: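 Compound dilutions (3-fold) were incubated 1 hr at room temperature with 20 nM Keap1 Kelch (321-609) and 8 nM TAMRA-labeled ETGE 16mer peptide. Buffer was 50 mM Tris pH 8.0, 100 mM NaCl, 5 mM MgCl2, 1 mM DTT, 2 mM CHAPS, 0.005% BSA. Fluorescence polarization (mP) was normalized to controls and fitted with a four-parameter equation to give pIC50.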

[3] = biological target: T2, full length Keap1 protein / full length NRF2 protein (Homo sapiens, UniProt Q14145); assay: NRF2-Keap1 TR-FRET Low Protein Assay; type: binding; conditions: 1.25 nM Keap1 FlagHis and 2.5 nM biotin-NRF2 added
T2 construct: full length NRF2 protein and full length Keap1 protein (Keap1 exists a dimer) are used; His
T2 sequence (Q14145 whole entry): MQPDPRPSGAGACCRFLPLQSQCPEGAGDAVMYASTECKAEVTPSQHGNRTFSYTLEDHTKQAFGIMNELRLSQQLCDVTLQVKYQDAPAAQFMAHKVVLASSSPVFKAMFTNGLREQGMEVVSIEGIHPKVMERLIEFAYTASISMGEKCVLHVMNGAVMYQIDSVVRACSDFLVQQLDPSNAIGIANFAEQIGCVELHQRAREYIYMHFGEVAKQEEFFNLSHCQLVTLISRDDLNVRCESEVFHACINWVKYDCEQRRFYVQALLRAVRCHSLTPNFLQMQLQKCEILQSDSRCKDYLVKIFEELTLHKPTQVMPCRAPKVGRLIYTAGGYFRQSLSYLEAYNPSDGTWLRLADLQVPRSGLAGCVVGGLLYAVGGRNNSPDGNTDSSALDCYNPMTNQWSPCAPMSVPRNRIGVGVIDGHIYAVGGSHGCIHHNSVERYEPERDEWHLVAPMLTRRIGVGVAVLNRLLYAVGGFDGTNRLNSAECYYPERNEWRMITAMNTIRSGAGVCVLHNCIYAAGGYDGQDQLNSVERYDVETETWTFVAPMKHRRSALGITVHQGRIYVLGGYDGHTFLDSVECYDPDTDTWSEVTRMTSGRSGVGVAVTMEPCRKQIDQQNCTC
Outline: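 Flag-tagged full-length Keap1 was preincubated with compound (3-fold series) for 2.25 h at 37 °C in Tris pH 8.0/MgCl2/NaCl/BSA/DTT/CHAPS. Biotin-Avi-NRF2 (added at 2.5 nM) was then bound for 1.25 h at 4 °C. Eu-streptavidin/anti-Flag-APC TR-FRET (665/615 nm) was read after 1 h at RT, and pIC50 came from a four-parameter fit.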

Structure (SMILES)	IC50 [2] [nM]	IC50 [3] [nM]	EC50 ([1]; Homo sapiens) [nM]	EC50 [1] [nM]
C[C@H](Oc1cccc(-c2cccc(-n3ncc(C(=O)OC4CCOC4=O)c3[C@@H]3C[C@H]3c3cn(C)nn3)c2)c1)C1CCCCC1 (stereo partly drawn) [Example 106, 2-Oxotetrahydrofuran-3-yl 1-(3′-((S)-1-cyclohexylethoxy)-[1,1′-biphenyl]-3-yl)-5-((1R,2R)-2-(1-methyl-1H-1,2,3-triazol-4-yl)cyclopropyl)-1H-pyrazole-4-carboxylate]	> 10000	1000 to 10000	100 to 1000	–
C[C@H](Oc1cccc(-c2cccc(-n3ncc(C(=O)OCOC(=O)OC(C)(C)C)c3[C@@H]3C[C@H]3c3cn(C)nn3)c2)c1)C1CCCCC1 [Example 112, ((tert-Butoxycarbonyl)oxy)methyl 1-(3′-((S)-1-cyclohexylethoxy)-[1,1′-biphenyl]-3-yl)-5-((1R,2R)-2-(1-methyl-1H-1,2,3-triazol-4-yl)cyclopropyl)-1H-pyrazole-4-carboxylate]	> 10000	100 to 1000	1 to 10	–
C[C@H](Oc1cccc(-c2cccc(-n3ncc(C(=O)O)c3[C@@H]3C[C@H]3c3c[nH]nn3)c2)c1)C1CCCCC1 [Example 99, 5-((1R,2R)-2-(1H-1,2,3-Triazol-4-yl)cyclopropyl)-1-(3′-((S)-1-cyclohexylethoxy)-[1,1′-biphenyl]-3-yl)-1H-pyrazole-4-carboxylic Acid]	10 to 100	< 10	1 to 10	–
C[C@H](Oc1cccc(-c2cccc(-n3ncc(C(=O)O)c3[C@@H]3C[C@H]3c3cn(C4CCN(C(=O)OC(C)(C)C)CC4)nn3)c2)c1)C1CCCCC1 (racemic) [Example 81, 5-(trans-2-(1-(1-(tert-Butoxycarbonyl)piperidin-4-yl)-1H-1,2,3-triazol-4-yl)cyclopropyl)-1-(3′-((S)-1-cyclohexylethoxy)-[1,1′-biphenyl]-3-yl)-1H-pyrazole-4-carboxylic acid]	100 to 1000	100 to 1000	10 to 100	–
C[C@H](Oc1cccc(-c2cccc(-n3ncc(C(=O)O)c3[C@@H]3C[C@H]3c3cn(C4CN(C)C4)nn3)c2)c1)C1CCCCC1 (racemic) [Example 94, 1-(3′-((S)-1-Cyclohexylethoxy)-[1,1′-biphenyl]-3-yl)-5-(trans-2-(1-(1-methylazetidin-3-yl)-1H-1,2,3-triazol-4-yl)cyclopropyl)-1H-pyrazole-4-carboxylic Acid]	10 to 100	10 to 100	10 to 100	–
C[C@H](Oc1cccc(-c2cccc(-n3ncc(C(=O)O)c3[C@@H]3C[C@H]3c3cn(C4CCN(C)CC4)nn3)c2)c1)C1CCCCC1 (racemic) [Example 82, 1-(3′-((S)-1-Cyclohexylethoxy)-[1,1′-biphenyl]-3-yl)-5-(trans-2-(1-(1-methylpiperidin-4-yl)-1H-1,2,3-triazol-4-yl)cyclopropyl)-1H-pyrazole-4-carboxylic acid]	10 to 100	10 to 100	10 to 100	–
CC(=O)OCOC(=O)c1cnn(-c2cccc(-c3cccc(O[C@@H](C)C4CCCCC4)c3)c2)c1[C@@H]1C[C@H]1c1cn(C)nn1 [Example 110, Acetoxymethyl 1-(3′-((S)-1-cyclohexylethoxy)-[1,1′-biphenyl]-3-yl)-5-((1R,2R)-2-(1-methyl-1H-1,2,3-triazol-4-yl)cyclopropyl)-1H-pyrazole-4-carboxylate]	100 to 1000	10 to 100	< 1	–
C[C@H](Oc1cccc(-c2cccc(-n3ncc(C(=O)OCCN4CCOCC4)c3[C@@H]3C[C@H]3c3cn(C)nn3)c2)c1)C1CCCCC1 [Example 108, 2-Morpholinoethyl 1-(3′-((S)-1-cyclohexylethoxy)-[1,1′-biphenyl]-3-yl)-5-((1R,2R)-2-(1-methyl-1H-1,2,3-triazol-4-yl)cyclopropyl)-1H-pyrazole-4-carboxylate]	> 10000	1000 to 10000	10 to 100	–

More lines, main results first:

IC50 [2] [nM]	IC50 [3] [nM]	Structure (SMILES)	EC50 ([1]; Homo sapiens) [nM]	EC50 [1] [nM]
10 to 100	10 to 100	CCC1c2ccccc2OCCN1Cc1cccc(-c2cccc(-n3ncc(C(=O)O)c3[C@H]3C[C@@H]3c3cn(C)nn3)c2)c1 (mixture of isomers) [Example 123, 1-(3′-((5-Ethyl-2,3-dihydrobenzo[f][1,4]oxazepin-4(5H)-yl)methyl)-[1,1′-biphenyl]-3-yl)-5-((1,2-trans)-2-(1-methyl-1H-1,2,3-triazol-4-yl)cyclopropyl)-1H-pyrazole-4-carboxylic Acid]	10 to 100	–
10 to 100	< 10	CC[C@@H]1CN(Cc2cccc(-c3cccc(-n4ncc(C(=O)O)c4[C@@H]4C[C@H]4c4cn(C)nn4)c3)c2)S(=O)(=O)c2cccnc2O1 (racemic) [Example 138, 1-(3′-(((R)-4-ethyl-1,1-dioxido-3,4-dihydro-2H-pyrido[2,3-b][1,4,5]oxathiazepin-2-yl)methyl)-[1,1′-biphenyl]-3-yl)-5-((1,2-trans)-2-(1-methyl-1H-1,2,3-triazol-4-yl)cyclopropyl)-1H-pyrazole-4-carboxylic acid]	1000 to 10000	–
10 to 100	< 10	CC[C@@H]1COc2ccccc2CN1Cc1cccc(-c2cccc(-n3ncc(C(=O)O)c3[C@@H]3C[C@H]3c3cn(C)nn3)c2)c1 [Example 120, 1-(3′-(((R)-3-Ethyl-2,3-dihydrobenzo[f][1,4]oxazepin-4(5H)-yl)methyl)-[1,1′-biphenyl]-3-yl)-5-((1R,2R)-2-(1-methyl-1H-1,2,3-triazol-4-yl)cyclopropyl)-1H-pyrazole-4-carboxylic Acid]	10 to 100	–
10 to 100	< 10	C[C@H]1Cc2ccccc2S(=O)(=O)N(Cc2cccc(-c3cccc(-n4ncc(C(=O)O)c4[C@@H]4C[C@H]4c4cn(C)nn4)c3)c2)C1 [Example 132, 1-(3′-(((S)-4-methyl-1,1-dioxido-4,5-dihydrobenzo[f][1,2]thiazepin-2(3H)-yl)methyl)-[1,1′-biphenyl]-3-yl)-5-((1R,2R)-2-(1-methyl-1H-1,2,3-triazol-4-yl)cyclopropyl)-1H-pyrazole-4-carboxylic acid]	100 to 1000	–
10 to 100	10 to 100	C[C@@H]1Cc2ccc(Br)cc2S(=O)(=O)N(Cc2cccc(-c3cccc(-n4ncc(C(=O)O)c4[C@@H]4C[C@H]4c4cn(C)nn4)c3)c2)C1 (single isomer, unassigned; isomer 2) [Example 135]	10 to 100	–
10 to 100	< 10	CC[C@H]1c2ccccc2OCCN1Cc1cccc(-c2cccc(-n3ncc(C(=O)O)c3[C@@H]3C[C@H]3c3cn(C)nn3)c2)c1 (single isomer, unassigned; isomer 1) [Example 122]	–	10 to 100
10 to 100	< 10	CC[C@@H]1CN(Cc2cccc(-c3cccc(-n4ncc(C(=O)O)c4[C@@H]4C[C@H]4c4cn(C)nn4)c3)c2)Cc2ccccc2O1 [Example 65, 1-(3′-(((R)-2-Ethyl-2,3-dihydrobenzo[f][1,4]oxazepin-4(5H)-yl)methyl)-[1,1′-biphenyl]-3-yl)-5-((1R,2R)-2-(1-methyl-1H-1,2,3-triazol-4-yl)cyclopropyl)-1H-pyrazole-4-carboxylic Acid]	100 to 1000	–
10 to 100	10 to 100	CC(Cc1cccc(-c2cccc(-n3ncc(C(=O)O)c3[C@@H]3C[C@H]3c3cn(C)nn3)c2)c1)C1CCCCC1 (single isomer, unassigned) [Example 116e, 1-(3′-((R) or (S)-2-Cyclohexylpropyl)-[1,1′-biphenyl]-3-yl)-5-((1R,2R)-2-(1-methyl-1H-1,2,3-triazol-4-yl)cyclopropyl)-1H-pyrazole-4-carboxylic Acid]	1 to 10	–
